This passage reports IC50 results from US9193744B2, “Heterocyclic nuclear hormone receptor modulators” (AbbVie Inc., priority 2012, dated 2015).

Assay [1] concerns the target T1, Glucocorticoid Receptor (GR) (Homo sapiens, UniProt P04150).
T1 construct: purchased Invitrogen P2893
T1 sequence (P04150 1-777): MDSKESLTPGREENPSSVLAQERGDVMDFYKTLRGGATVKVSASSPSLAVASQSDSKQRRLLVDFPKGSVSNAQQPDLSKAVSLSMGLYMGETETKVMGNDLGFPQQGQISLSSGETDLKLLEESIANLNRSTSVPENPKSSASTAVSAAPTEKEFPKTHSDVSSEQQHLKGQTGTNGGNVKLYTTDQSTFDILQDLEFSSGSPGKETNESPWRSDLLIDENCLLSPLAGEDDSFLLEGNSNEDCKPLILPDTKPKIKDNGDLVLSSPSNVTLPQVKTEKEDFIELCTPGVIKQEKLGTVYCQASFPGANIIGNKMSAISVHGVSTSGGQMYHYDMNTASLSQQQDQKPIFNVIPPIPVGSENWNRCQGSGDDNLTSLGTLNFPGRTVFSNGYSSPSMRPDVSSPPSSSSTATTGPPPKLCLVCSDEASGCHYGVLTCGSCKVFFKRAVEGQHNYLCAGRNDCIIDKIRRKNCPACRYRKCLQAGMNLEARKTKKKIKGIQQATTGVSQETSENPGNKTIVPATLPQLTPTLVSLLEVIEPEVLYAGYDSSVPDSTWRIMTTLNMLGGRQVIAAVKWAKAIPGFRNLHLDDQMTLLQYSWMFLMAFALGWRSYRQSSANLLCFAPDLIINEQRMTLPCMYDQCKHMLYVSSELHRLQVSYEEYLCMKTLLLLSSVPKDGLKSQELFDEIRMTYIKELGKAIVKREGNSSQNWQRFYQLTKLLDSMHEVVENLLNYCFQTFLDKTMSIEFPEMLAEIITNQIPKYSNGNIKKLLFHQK
As to the kind of experiment: GR Fluorescence Polarization Assay (PolarScreen Glucocorticoid Receptor Competitor Assay, Red). The conditions noted are these: fluorescence polarization binding ranges. The method, then: Fluorescence polarization assays were carried out using the PolarScreen™ Glucocorticoid Receptor Competitor Assay, Red from Invitrogen (P2893). The assay buffer was prepared according to the manufacturer's protocol and used to dilute the fluorescent glucocorticoid and GR. Compounds were prepared and serial diluted 1:4 in DMSO. Compound, fluorescent glucocorticoid and GR were added in a final volume of 20 μL and incubated overnight at 4° C. Fluorescent polarization was measured on the PerkinElmer Envision®. Fluorescence polarization binding ranges measured using GR Fluorescence Polarization Assay: […]

Assay [2] deals with IL-6. As to the kind of experiment: A549 Cell Assay to Measure Inflammation Markers (inhibition of IL-1β-induced IL-6). The conditions noted are these: A549 cells, read-out: A549 cell assay. It is filed as cell-based. The protocol:
A549 Cell Assay to Measure Inflammation Markers
A549 cells were seeded (3E4 cells/well) in 96-well assay plates in culture medium (100 μL/well., F-12 K base media, supplemented with 10% FBS and 100 μ/mL-100 μg/mL Pen-Strep.) After overnight culture in an incubator set to 37° C., 4.9% CO2, and 90% humidity, media was removed from adherent cells by aspiration and replaced with 100 μL/well Assay Medium (F-12 K base media supplemented with 5% charcoal stripped calf sera and 100 U/mL-100 μg/mL Pen-Strep.) Compounds were prepared in DMSO and serial diluted (1:3, 1:4, or 1:5) with DMSO in Dilution Plate(s) to give 10 dilution points for each compound tested. Further dilution (1:250) of compound was made into assay medium and 50 μL/well diluted drug or DMSO/media control was applied to cells. After a 1 h pre-incubation in a temperature, CO2, and humidity controlled incubator, set to 37° C., 50 μL/well of 4 ng/mL IL-1β diluted in assay media, was applied to cultures. Assay plates, with a final volume of 200 μL/well and final concentrations of 0.1% DMSO and 1 ng/mL IL-1β were returned to incubator for a four h incubation period. Next, plates were spun at 183 g (1000 rpm in Beckman/Coulter Allegra 6KR centrifuge) for 10 min. Cell-free supernatant (150 μL/well) was collected and IL-6 was measured by MSD kit, following protocol of manufacturer, and using MSD SECTOR Imager 6000 instrument. Potency of compounds to inhibit IL-6 was determined using the percent reduction of measured IL-6 in wells with compound compared to control wells without drug, and relative to (100% inhibition) positive control compound of 1 μM prednisolone. Results were represented as IC50 and Emax values. To verify that viable cell numbers were similar across plate(s), and not confounding compound IC50 data interpretation, the remaining 50 μL/well of cells and media (after removal of supernatant) were used to run Cell Titer-Glo Assay per directions of manufacturer.

Where two headings read alike, the source gives them in different places.

With `C[C@]1(O)CC[C@]2(Cc3ncccn3)c3cc4cnn(-c5ccc(F)cc5)c4cc3CCC[C@@H]2C1` [Example 56], the IC50 in assay [1] is 100 to 1000 nM; in assay [2], over 10000 nM.
Turning to `CC[C@@]12CC[C@](O)(C(F)(F)F)C[C@H]1CCCc1cc3c(cnn3-c3ccc(S(C)(=O)=O)cc3)cc12` [Example 168, (3R,4aR,12bR)-12b-ethyl-9-(4-(methylsulfonyl)phenyl)-3-(trifluoromethyl)-1,2,3,4,4a,5,6,7,9,12b-decahydrobenzo[6,7]cyclohepta[1,2-f]indazol-3-ol], the IC50 in assay [1] and in assay [2] (Homo sapiens) was under 100 nM each time.
With `CC[C@@]12CC[C@](O)(COC)C[C@@H]1CCCc1cc3c(cnn3-c3ccccn3)cc12` [Example 47], the IC50 in assay [1] and in assay [2] was under 100 nM throughout.
On to `O=C(NC1CC1)[C@]12CC[C@@](O)(C(F)(F)F)C[C@@H]1CCCc1cc3c(cnn3-c3ccc(F)cc3)cc12` (single isomer, unassigned) [Example 87], for which the IC50 in assay [1] is under 100 nM; in assay [2] (Homo sapiens), 1000 to 10000 nM.
`CC[C@@]1(O)CC[C@@]2(Cc3ccccn3)c3cc4cnn(-c5ccc(F)cc5)c4cc3C(=O)CC[C@H]2C1` [Example 94, (3R,4aS,12bS)-3-Ethyl-9-(4-fluorophenyl)-3-hydroxy-12b-(pyridin-2-ylmethyl)-1,2,3,4,4a,5,6,12b-octahydrobenzo[6,7]cyclohepta[1,2-f]indazol-7(9H)-one]: the IC50 in assay [1] and in assay [2] (Homo sapiens) was under 100 nM throughout.
On to `C[C@@]1(O)CC[C@@]2(Cc3ncccn3)c3cc4cnn(-c5ccc(F)cc5)c4nc3CCC[C@H]2C1` [Example 161], for which the IC50 in assay [1] was in the range of 100 to 1000 nM.
Consider `C[C@@]1(O)CC[C@@]2(Cc3ccccn3)c3cc4cnn(-c5ccc(F)cc5)c4nc3CCC[C@H]2C1` (racemic) [Example 148, rac-(3R,4aS,12bS)-9-(4-Fluorophenyl)-3-methyl-12b-(pyridin-2-ylmethyl)-1,2,3,4,4a,5,6,7,9,12b-decahydrobenzo[3,4]cyclohepta[1,2-b]pyrazolo[4,3-e]pyridin-3-ol], for which the IC50 in assay [1] and in assay [2] (Homo sapiens) was under 100 nM each time.
As for `CC[C@]12CC[C@](O)(C(F)(F)F)C[C@H]1CCCc1c2cc2cnn(-c3ccc(F)cc3)c2c1Br` [Example 92, (3R,4aR,12bS)-8-Bromo-12b-ethyl-9-(4-fluorophenyl)-3-(trifluoromethyl)-1,2,3,4,4a,5,6,7,9,12b-decahydrobenzo[6,7]cyclohepta[1,2-f]indazol-3-ol], the IC50 in assay [1] is 100 to 1000 nM; in assay [2] (Homo sapiens) it was over 10000 nM.
For the molecule `CC[C@@]12CC[C@](O)(COC)C[C@@H]1CCCc1cc3c(cnn3-c3ccnc(C)c3)cc12` (racemic) [Example 45], the IC50 in assay [1] and in assay [2] was under 100 nM each time.
With `CC[C@@]12CC[C@](O)(C(F)(F)F)C[C@H]1CCCc1nc3c(cnn3-c3ccc(F)cc3)cc12` (racemic) [Example 152, rac-(3R,4aR,12bR)-12b-ethyl-9-(4-fluorophenyl)-3-(trifluoromethyl)-1,2,3,4,4a,5,6,7,9,12b-decahydrobenzo[3,4]cyclohepta[1,2-b]pyrazolo[4,3-e]pyridin-3-ol], the IC50 in assay [1] and in assay [2] (Homo sapiens) was under 100 nM throughout.
For `CC[C@@]12CC[C@](O)(COC)C[C@@H]1CCOc1cc3c(cnn3-c3ccncc3)cc12` [Example 134], the IC50 in assay [1] and in assay [2] (Homo sapiens) was under 100 nM in each case.
`CC[C@]12CC[C@@](O)(COC)C[C@H]1CCOc1cc3c(cnn3-c3ccc(F)cc3)cc12` [Example 130]: the IC50 in assay [1] is under 100 nM; in assay [2] it was over 10000 nM.
On to `COC[C@]1(O)CC[C@]2(CC3CC3)c3cc4cnn(-c5ccc(F)cc5)c4cc3CCC[C@@H]2C1` [Example 39], for which the IC50 in assay [1] and in assay [2] was under 100 nM throughout.
Consider `OC[C@@]12CC[C@](O)(C(F)(F)F)C[C@H]1CCCc1cc3c(cnn3-c3ccc(F)cc3)cc12` (racemic) [Example 80], for which the IC50 in assay [1] and in assay [2] (Homo sapiens) was under 100 nM each time.
For `C[C@@]1(O)CC[C@@]2(CC3CC3)c3cc4cnn(-c5ccc(F)cc5)c4cc3CCC[C@H]2C1` [Example 57], the IC50 in assay [1] and in assay [2] was under 100 nM each time.
Regarding `Cc1cc(-n2ncc3cc4c(cc32)CCC[C@H]2C[C@@](O)(CC#N)CC[C@@]42Cc2ccccn2)ccn1` [Example 70], the IC50 in assay [2] was under 100 nM.
As to `CC[C@]12CC[C@@](OS(N)(=O)=O)(C(F)(F)F)C[C@@H]1CCCc1cc3c(cnn3-c3ccc(F)cc3)cc12` [Example 170, (3S,4aS,12bS)-12b-ethyl-9-(4-fluorophenyl)-3-(trifluoromethyl)-1,2,3,4,4a,5,6,7,9,12b-decahydrobenzo[6,7]cyclohepta[1,2-f]indazol-3-yl sulfamate], the IC50 in assay [1] was in the range of 100 to 1000 nM.
Turning to `CC[C@@]12CC[C@](O)(COC)C[C@@H]1CCOc1cc3c(cnn3-c3nnc(C)s3)cc12` (racemic) [Example 139], in assay [1], the IC50 fell in the range of 100 to 1000 nM.
As to `CC[C@]12CC[C@@](O)(COC)C[C@H]1CCOc1cc3c(cnn3-c3ccnc(OC)c3)cc12` [Example 137], in assay [1], the IC50 is 1000 to 10000 nM.
The same measure, in the same setting: the figure for `Cc1cc(-n2ncc3cc4c(cc32)CCC[C@@H]2C[C@@](C)(O)CC[C@]42Cc2ccccn2)ccn1` [Example 61] is 100 to 1000 nM; for `O=C(NC1CC1)[C@@]12CC[C@](O)(C(F)(F)F)C[C@H]1CCCc1cc3c(cnn3-c3ccc(F)cc3)cc12` (single isomer, unassigned) [Example 86] it is 100 to 1000 nM; for `CC[C@]12CC[C@](C)(O)C[C@H]1CCOc1cc3c(cnn3-c3ccnc(C)c3)cc12` [Example 142] it is 100 to 1000 nM.
As to `C[C@]1(O)CC[C@]2(Cc3ccccn3)c3cc4cnn(-c5ccc(F)cc5)c4nc3CCC[C@@H]2C1` (single isomer, unassigned) [Example 150], the IC50 in assay [1] is 100 to 1000 nM.
In assay [1], `COC[C@]1(O)CC[C@]2(Cc3ncccn3)c3cc4cnn(-c5ccc(F)cc5)c4nc3CCC[C@@H]2C1` [Example 159] yielded an IC50 of 100 to 1000 nM.
`CC[C@]12CC[C@@](O)(COC)C[C@H]1CCOc1cc3c(cnn3-c3ccnc(C(F)(F)F)c3)cc12` [Example 140]: the IC50 in assay [1] lay in the range of 100 to 1000 nM.
As for `N#CC[C@]1(O)CC[C@]2(Cc3ccccn3)c3cc4cnn(-c5ccc(F)cc5)c4nc3CCC[C@@H]2C1` [Example 164], the IC50 in assay [1] is 100 to 1000 nM.
The molecule `CC[C@]12CC[C@@](O)(CC#N)C[C@H]1CCOc1cc3c(cnn3-c3ccnc(C)c3)cc12` [Example 144] showed an IC50 in assay [1] of 100 to 1000 nM.
The molecule `CC[C@]12CC[C@@](OP(=O)(O)O)(C(F)(F)F)C[C@@H]1CCCc1cc3c(cnn3-c3ccc(F)cc3)cc12` [Example 101, (3S,4aS,12bS)-12b-Ethyl-9-(4-fluorophenyl)-3-(trifluoromethyl)-1,2,3,4,4a,5,6,7,9,12b-decahydrobenzo[6,7]cyclohepta[1,2-f]indazol-3-yl dihydrogen phosphate] registered an IC50 in assay [1] of 100 to 1000 nM.
`COC[C@]1(O)CC[C@]2(Cc3ccccn3)c3cc4cnn(-c5ccc(F)cc5)c4nc3CCC[C@H]2C1` [Example 157] gave an IC50 in assay [1] of 100 to 1000 nM.
For `CC[C@]12CC[C@@](O)(COC)C[C@H]1CCOc1cc3c(cnn3-c3ccnc(C)c3)cc12` (single isomer, unassigned) [Example 127], the IC50 in assay [1] was in the range of 100 to 1000 nM.
